Data as given in patent US20050124493A1, “Herbicidal composition” (priority 2002, published 2005).

Test system: wheat and barley
Assay: Post-emergence greenhouse test of herbicide mixture with safener (Example B1)
Assay type: in vivo
Details: greenhouse pots, mixture of MCPA, bromoxynil and herbicide H1 or H2, alone vs. with safener (admixture or seed dressing), evaluated after 9, 10, 20 and 24 days, 100% action=plant completely dead, 0%=no phytotoxic action
Description: Examples B1: Post-emergence applications of mixtures of MCPA, bromoxynil and the herbicide of formula I wherein R1 and R3 are —C2H5; R4 and R5 together form a group —CR14(R15)—CR16(R17)—O—CR18(R19)—CR20(R21)— wherein R14, R15 R16, R17, R18, R19, R20 and R21 are hydrogen; and G is either hydrogen (=herbicide H1) or (CH3)3CC(O)— (=herbicide H2), with the safener of formula II wherein Rs1 is chlorine and Rs2 is 1-methylhexyl, in wheat and barley, and together with 3 different weeds.
The test plants are grown to a post-application stage in pots under greenhouse conditions. A standard soil is used as cultivation substrate. At a post-emergence stage, the herbicides, both on their own and in admixture with the safener, are applied to the test plants or to cultivated plants seed-dressed with safener. The application is carried out using an emulsion (prepared from a 25% emulsifiable concentrate (Example F1, b)) of the test substances using 500 litres of water per ha. The rates of application depend on the optimum concentrations ascertained under field conditions and greenhouse conditions. The tests are evaluated after 9, 10, 20 and 24 days (100% action=plant is completely dead, 0% action=no phytotoxic action).

## CCCCCC(C)OC(=O)COc1ccc(Cl)c2cccnc12 (stereo not shown) [safener]
  damage caused to the cultivated plants by the herbicide mixture (phytotoxic action): significantly reduce the damage
